Reference: ChEMBL document CHEMBL4411307, “N,N'-diaryl-bishydrazones in a biphenyl platform: Broad spectrum antifungal agents” (Eur J Med Chem, 2019)
Converted amounts (≈) assume the structure as drawn. The source made the active and inactive calls. The calls are words filed in the database; no cut-off is given here.

How the values were obtained:
[1] = Selectivity index, ratio of CC50 for human A549 cells to MIC for Aspergillus terreus ATCC MYA-3633; type: toxicity; conditions: read-out: Selectivity Index
Pichia kudriavzevii = test: Antifungal activity against Candida krusei ATCC 6258 measured after 48 hrs by CLSI M27-A3 protocol based method; type: functional; conditions: ATCC 6258, 48 h
Candida albicans [2] = test: Antifungal activity against fluconazole/ITC-resistant Candida albicans ATCC MYA-1237 measured after 48 hrs by CLSI M27-A3 protocol based method; type: functional; conditions: ATCC MYA-1237, 48 h
[3] = Hemolytic activity in mouse RBC at 3.9 ug/ml after 1 hr relative to control; type: ADME, cell-based, Erythrocyte; conditions: red blood cells (erythrocytes), read-out: Activity
[4] = Hemolytic activity in mouse RBC at 62.5 ug/ml after 1 hr relative to control; type: ADME, cell-based, Erythrocyte; conditions: red blood cells (erythrocytes), read-out: Activity
Aspergillus nidulans = test: Antifungal activity against Aspergillus nidulans ATCC 38163 measured after 48 hrs by CLSI M38-A2 protocol based method; type: functional; conditions: ATCC 38163, 48 h
Nakaseomyces glabratus = test: Antifungal activity against Candida glabrata ATCC 2001 measured after 48 hrs by CLSI M27-A3 protocol based method; type: functional; conditions: CBS 138, 48 h
Candida albicans [5] = test: Antifungal activity against fluconazole/ITC-resistant Candida albicans ATCC MYA-1003 measured after 48 hrs by CLSI M27-A3 protocol based method; type: functional; conditions: ATCC MYA-1003, 48 h
[6] = Hemolytic activity in mouse RBC at 31.3 ug/ml after 1 hr relative to control; type: ADME, cell-based, Erythrocyte; conditions: red blood cells (erythrocytes), read-out: Activity
[7] = Selectivity index, ratio of CC50 for human A549 cells to MIC for Candida glabrata ATCC 2001; type: toxicity; conditions: read-out: Selectivity Index
[8] = Selectivity index, ratio of CC50 for human A549 cells to MIC for fluconazole/ITC-resistant Candida albicans ATCC 64124; type: toxicity; conditions: read-out: Selectivity Index
Candida albicans [9] = test: Antifungal activity against fluconazole/ITC-resistant Candida albicans ATCC 90819 measured after 48 hrs by CLSI M27-A3 protocol based method; type: functional; conditions: ATCC 90819, 48 h
[10] = Selectivity index, ratio of CC50 for human A549 cells to MIC for fluconazole/ITC-resistant Candida albicans ATCC 10231; type: toxicity; conditions: read-out: Selectivity Index
[11] = Selectivity index, ratio of CC50 for human A549 cells to MIC for Candida krusei ATCC 6258; type: toxicity; conditions: read-out: Selectivity Index
A549 = test: Cytotoxicity against human A549 cells after 24 hrs by resazurin based assay; type: cell-based; conditions: a549, 24 h
[12] = Selectivity index, ratio of CC50 for human A549 cells to MIC for Candida parapsilosis ATCC 22019; type: toxicity; conditions: read-out: Selectivity Index
Enterococcus = test: Antibacterial activity against vancomycin-resistant Enterococcus; type: functional, organism-based
Candida albicans [13] = test: Antifungal activity against fluconazole/ITC-susceptible Candida albicans ATCC MYA-2876 measured after 48 hrs by CLSI M27-A3 protocol based method; type: functional; conditions: ATCC MYA-2876, 48 h
[14] = Selectivity index, ratio of CC50 for human A549 cells to MIC for fluconazole/ITC-susceptible Candida albicans ATCC MYA-2310; type: toxicity; conditions: read-out: Selectivity Index
[15] = Hemolytic activity in mouse RBC at […] ug/ml after 1 hr relative to control; type: ADME, cell-based, Erythrocyte; conditions: red blood cells (erythrocytes), read-out: Activity
Aspergillus flavus = test: Antifungal activity against Aspergillus flavus ATCC MYA-3631 measured after 48 hrs by CLSI M38-A2 protocol based method; type: functional; conditions: ATCC MYA-3631, 48 h
Candida albicans [16] = test: Antifungal activity against fluconazole/ITC-resistant Candida albicans ATCC 10231 measured after 48 hrs by CLSI M27-A3 protocol based method; type: functional; conditions: ATCC 10231, 48 h
BEAS-2B = test: Cytotoxicity against human BEAS2B cells after 24 hrs by resazurin based assay; type: cell-based
Candida albicans [17] = test: Antifungal activity against fluconazole/ITC-resistant Candida albicans ATCC 64124 measured after 48 hrs by CLSI M27-A3 protocol based method; type: functional; conditions: ATCC 64124, 48 h
Candida albicans [18] = test: Antifungal activity against fluconazole/ITC-susceptible Candida albicans ATCC MYA-2310 measured after 48 hrs by CLSI M27-A3 protocol based method; type: functional; conditions: ATCC MYA-2310, 48 h
[19] = Selectivity index, ratio of CC50 for human A549 cells to MIC for fluconazole/ITC-resistant Candida albicans ATCC 90819; type: toxicity; conditions: read-out: Selectivity Index
[20] = Hemolytic activity in mouse RBC at 7.8 ug/ml after 1 hr relative to control; type: ADME, cell-based, Erythrocyte; conditions: red blood cells (erythrocytes), read-out: Activity
[21] = Hemolytic activity in mouse RBC at 1.95 ug/ml after 1 hr relative to control; type: ADME, cell-based, Erythrocyte; conditions: red blood cells (erythrocytes), read-out: Activity
Aspergillus terreus = test: Antifungal activity against Aspergillus terreus ATCC MYA-3633 measured after 48 hrs by CLSI M38-A2 protocol based method; type: functional; conditions: ATCC MYA-3633, 48 h
[22] = Selectivity index, ratio of CC50 for human A549 cells to MIC for Aspergillus nidulans ATCC 38163; type: toxicity; conditions: read-out: Selectivity Index
Staphylococcus aureus = test: Antibacterial activity against methicillin-resistant Staphylococcus aureus; type: functional, organism-based
[23] = Hemolytic activity in mouse RBC at […] after 1 hr relative to control; type: ADME, cell-based, Erythrocyte; conditions: red blood cells (erythrocytes), read-out: Activity; further: tested at 0.48 µg/mL
Candida parapsilosis = test: Antifungal activity against Candida parapsilosis ATCC 22019 measured after 48 hrs by CLSI M27-A3 protocol based method; type: functional; conditions: Lodderomyces parapsilosis, ATCC 22019, 48 h
[24] = Selectivity index, ratio of CC50 for human A549 cells to MIC for fluconazole/ITC-resistant Candida albicans ATCC MYA-1003; type: toxicity; conditions: read-out: Selectivity Index
[25] = Selectivity index, ratio of CC50 for human A549 cells to MIC for fluconazole/ITC-resistant Candida albicans ATCC MYA-1237; type: toxicity; conditions: read-out: Selectivity Index
[26] = Selectivity index, ratio of CC50 for human A549 cells to MIC for fluconazole/ITC-susceptible Candida albicans ATCC MYA-2876; type: toxicity; conditions: read-out: Selectivity Index
Listeria monocytogenes = test: Antibacterial activity against Listeria monocytogenes; type: functional, organism-based

For `Fc1cccc(N/N=C/c2ccc(-c3cccc(/C=N/Nc4cccc(F)c4)c3)cc2)c1`, which selectivity ratio [1] is on record?
The selectivity ratio was 0.4.

What about the MIC (Pichia kudriavzevii) of the same molecule?
The MIC was 1.95 mg/L (≈ 4.57 µM).

What about the MIC (Candida albicans [2]) of the same molecule?
The MIC was 15.6 mg/L (≈ 36.6 µM).

What about the hemolysis at 1 h, 3.9 ug/ml [3] of the same molecule?
Its hemolysis at 1 h, 3.9 ug/ml is 2.5%.

What about the hemolysis at 1 h, 62.5 ug/ml [4] of the same molecule?
Its hemolysis at 1 h, 62.5 ug/ml is 39.5%.

And the MIC (Aspergillus nidulans)?
The MIC was 7.8 mg/L (≈ 18.3 µM).

And the MIC (Nakaseomyces glabratus)?
Its MIC is over 31.3 mg/L.

What about the MIC (Candida albicans [5]) of the same molecule?
The MIC was 7.8 mg/L (≈ 18.3 µM).

And the hemolysis at 1 h, 31.3 ug/ml [6]?
Its hemolysis at 1 h, 31.3 ug/ml is 32.6%.

What about the selectivity ratio [7] of the same molecule?
Its selectivity ratio is 0.4.

And the selectivity ratio [8]?
The selectivity ratio was 0.4.

And the MIC (Candida albicans [9])?
The MIC was 15.6 mg/L (≈ 36.6 µM).

And the selectivity ratio [10]?
Its selectivity ratio is 6.

What about the selectivity ratio [11] of the same molecule?
Its selectivity ratio is 6.

And the CC50 (A549)?
The CC50 was 11.7 mg/L (≈ 27.4 µM).

And the selectivity ratio [12]?
Its selectivity ratio is 0.4.

And the Activity (Enterococcus)?
Its Activity is “inactive”.

And the MIC (Candida albicans [13])?
Its MIC is 7.8 mg/L (≈ 18.3 µM).

What about the selectivity ratio [14] of the same molecule?
Its selectivity ratio is 0.4.

And the hemolysis at 1 h, 15.6 ug/ml ([15]; at 15.6 µg/mL)?
Its hemolysis at 1 h, 15.6 ug/ml is 13.9%.

And the hemolysis at 1 h, 0.975 ug/ml [15]?
The hemolysis at 1 h, 0.975 ug/ml was 4.6%.

What about the MIC (Aspergillus flavus) of the same molecule?
The MIC was 3.9 mg/L (≈ 9.14 µM).

And the MIC (Candida albicans [16])?
The MIC was 1.95 mg/L (≈ 4.57 µM).

What about the CC50 (BEAS-2B) of the same molecule?
Its CC50 is 11.8 mg/L (≈ 27.7 µM).

And the MIC (Candida albicans [17])?
The MIC was over 31.3 mg/L.

What about the MIC (Candida albicans [18]) of the same molecule?
The MIC was over 31.3 mg/L.

What about the selectivity ratio [19] of the same molecule?
The selectivity ratio was 0.8.

And the hemolysis at 1 h, 7.8 ug/ml [20]?
The hemolysis at 1 h, 7.8 ug/ml was 7.9%.

What about the hemolysis at 1 h, 1.95 ug/ml [21] of the same molecule?
The hemolysis at 1 h, 1.95 ug/ml was 0.6%.

And the MIC (Aspergillus terreus)?
Its MIC is over 31.3 mg/L.

And the selectivity ratio [22]?
Its selectivity ratio is 1.5.

And the Activity (Staphylococcus aureus)?
The Activity was “inactive”.

And the hemolysis at 1 h, […] [23]?
The hemolysis at 1 h, […] was 0%.

What about the MIC (Candida parapsilosis) of the same molecule?
Its MIC is 31.3 mg/L (≈ 73.4 µM).

What about the selectivity ratio [24] of the same molecule?
Its selectivity ratio is 1.5.

What about the selectivity ratio [25] of the same molecule?
The selectivity ratio was 0.8.

What about the selectivity ratio [26] of the same molecule?
The selectivity ratio was 1.5.

And the Activity (Listeria monocytogenes)?
Its Activity is “inactive”.
